Experimental data published in US8802597B2, “Herbicidal pyrimidines” (E I du Pont de Nemours and Company, priority 2003, dated 2014).
Read-outs that look alike come from different tables or passages of the source.

What was measured:
Format in all cases: in vivo
[1] = system: duck salad (Heteranthera limosa); assay: Test B flooded paddy test; conditions: Heteranthera limosa, Flood, 1000 g ai/ha; scale 0 to 100; read-out: Plant response rating, Ducksalad
Summary of the method: (§1)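 Plants were grown to the 2-leaf stage before treatment, then kept in a greenhouse for 13 to 15 days. Injury was rated visually against untreated controls on a 0 to 100 scale, where 0 is no effect and 100 is complete control.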

[2] = system: barnyardgrass (Echinochloa crus-galli); assay: Test B flooded paddy test; conditions: Echinochloa crus-galli, Flood, 1000 g ai/ha; scale 0 (no effect) to 100 (complete control); read-out: Plant response rating, Barnyardgrass
Summary of the method: as §1

[3] = system: umbrella sedge (Cyperus difformis); assay: Test B flooded paddy test; conditions: Cyperus difformis, Flood, 1000 g ai/ha; scale 0 to 100; read-out: Plant response rating, Sedge, Umbrella
Summary of the method: as §1

rice (Oryza sativa) = assay: Test B flooded paddy test; conditions: Oryza sativa, Flood, 1000 g ai/ha; scale 0 to 100; read-out: Plant response rating, Rice
Summary of the method: as §1

wild oat (Avena fatua) = assay: Test B postemergence; conditions: Avena fatua, post-emergence
Summary of the method: (§2)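 Visual rating, 0 (no effect) to 100 (complete control) versus controls, taken 13–15 days after treatment in greenhouse. Compounds formulated in non-phytotoxic solvent plus surfactant; pre: sprayed after seeding; post: plants at 1- to 4-leaf stage, 2–18 cm.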

[4] = system: blackgrass (Alopecurus myosuroides); assay: Test B postemergence; conditions: Alopecurus myosuroides, post-emergence
Summary of the method: as §2

[5] = system: wheat (Triticum aestivum); assay: Test B pre/postemergence; conditions: Triticum aestivum; for plant injury at 125 g/ha: 125 g ai/ha; for plant injury at 500 g/ha: 500 g ai/ha
Summary of the method: as §2

[6] = system: crabgrass (Digitaria sanguinalis); assay: Test B pre/postemergence; conditions: Digitaria sanguinalis; for pest or weed control at 125 g/ha: 125 g ai/ha; for pest or weed control at 500 g/ha: 500 g ai/ha
Summary of the method: as §2

[7] = system: barnyardgrass (Echinochloa crus-galli); assay: Test B pre/postemergence; conditions: Echinochloa crus-galli; for pest or weed control at 125 g/ha: 125 g ai/ha; for pest or weed control at 500 g/ha: 500 g ai/ha
Summary of the method: as §2

corn (Zea mays) = assay: Test B pre/postemergence; conditions: Zea mays
Summary of the method: as §2

[8] = system: velvetleaf (Abutilon theophrasti); assay: Test B pre/postemergence; conditions: Abutilon theophrasti; for pest or weed control at 125 g/ha: 125 g ai/ha; for pest or weed control at 500 g/ha: 500 g ai/ha
Summary of the method: as §2

[9] = system: Surinam grass (Brachiaria decumbens); assay: Test B pre/postemergence; conditions: Urochloa decumbens; for pest or weed control at 125 g/ha: 125 g ai/ha; for pest or weed control at 500 g/ha: 500 g ai/ha
Summary of the method: as §2

[10] = system: pigweed (Amaranthus retroflexus); assay: Test B pre/postemergence; conditions: Amaranthus retroflexus; for pest or weed control at 125 g/ha: 125 g ai/ha; for pest or weed control at 500 g/ha: 500 g ai/ha
Summary of the method: as §2

[11] = system: giant foxtail (Setaria faberii); assay: Test B pre/postemergence; conditions: Setaria faberi; for pest or weed control at 125 g/ha: 125 g ai/ha; for pest or weed control at 500 g/ha: 500 g ai/ha
Summary of the method: as §2

[12] = system: morningglory (Ipomoea coccinea); assay: Test B pre/postemergence; conditions: Ipomoea; for pest or weed control at 125 g/ha: 125 g ai/ha; for pest or weed control at 500 g/ha: 500 g ai/ha
Summary of the method: as §2

[13] = system: lambsquarters (Chenopodium album); assay: Test B pre/postemergence; conditions: Chenopodium album; for pest or weed control at 125 g/ha: 125 g ai/ha; for pest or weed control at 500 g/ha: 500 g ai/ha
Summary of the method: as §2

[14] = system: cocklebur (Xanthium strumarium); assay: Test B pre/postemergence; conditions: Xanthium strumarium; for pest or weed control at 125 g/ha: 125 g ai/ha; for pest or weed control at 500 g/ha: 500 g ai/ha
Summary of the method: as §2

SMILES: COC(=O)c1nc(C(C)C)nc(N)c1Br [Compound 3]
- pest or weed control at 1000 g/ha [1]: 0%
- pest or weed control at 1000 g/ha [2]: 0%
- pest or weed control at 1000 g/ha [3]: 0%
- plant injury at 1000 g/ha (rice (Oryza sativa)): 0%
- pest or weed control at 125 g/ha (wild oat (Avena fatua); 125 g ai/ha, scale 0 to 100 (0 no effect, 100 complete control), read-out: Oat, Wild plant response rating): 10%
- pest or weed control at 500 g/ha (wild oat (Avena fatua); 500 g ai/ha, scale 0 to 100, read-out: Plant response rating, Oat, Wild): 30%
- pest or weed control at 125 g/ha ([4]; 125 g ai/ha, scale 0 to 100 (0 no effect, 100 complete control), read-out: Blackgrass plant response rating): 20%
- pest or weed control at 500 g/ha ([4]; 500 g ai/ha, scale 0 to 100, read-out: Plant response rating, Blackgrass): 50%
- plant injury at 125 g/ha ([5]; post-emergence, Postemergence, scale 0 to 100 (0 no effect, 100 complete control), read-out: Wheat plant response rating): 10%
- plant injury at 500 g/ha ([5]; post-emergence, Postemergence, scale 0 to 100, read-out: Plant response rating, Wheat): 20%
- plant injury at 125 g/ha ([5]; pre-emergence, Preemergence, scale 0 to 100 (0 no effect, 100 complete control), read-out: Plant response rating, Wheat): 0%
- plant injury at 500 g/ha ([5]; pre-emergence, Preemergence, scale 0 to 100 (0 no effect, 100 complete control), read-out: Wheat plant response rating): 0%
- pest or weed control at 125 g/ha ([6]; post-emergence, Postemergence, scale 0 to 100 (0 no effect, 100 complete control), read-out: Crabgrass plant response rating): 30%
- pest or weed control at 500 g/ha ([6]; post-emergence, Postemergence, scale 0 to 100, read-out: Plant response rating, Crabgrass): 40%
- pest or weed control at 125 g/ha ([6]; pre-emergence, Preemergence, scale 0 to 100 (0 no effect, 100 complete control), read-out: Plant response rating, Crabgrass): 10%
- pest or weed control at 500 g/ha ([6]; pre-emergence, Preemergence, scale 0 to 100 (0 no effect, 100 complete control), read-out: Crabgrass plant response rating): 50%
- pest or weed control at 125 g/ha ([7]; post-emergence, Postemergence, scale 0 to 100 (0 no effect, 100 complete control), read-out: Barnyardgrass plant response rating): 0%
- pest or weed control at 500 g/ha ([7]; post-emergence, Postemergence, scale 0 to 100, read-out: Plant response rating, Barnyardgrass): 10%
- pest or weed control at 125 g/ha ([7]; pre-emergence, Preemergence, scale 0 to 100 (0 no effect, 100 complete control), read-out: Plant response rating, Barnyardgrass): 0%
- pest or weed control at 500 g/ha ([7]; pre-emergence, Preemergence, scale 0 to 100 (0 no effect, 100 complete control), read-out: Barnyardgrass plant response rating): 0%
- plant injury at 125 g/ha (corn (Zea mays); post-emergence, Postemergence, 125 g ai/ha, scale 0 to 100 (0 no effect, 100 complete control), read-out: Corn plant response rating): 0%
- Corn plant response rating (crop injury, 0 = no effect, 100 = complete kill) at 500 g/ha (corn (Zea mays); post-emergence, Postemergence, 500 g ai/ha, scale 0 to 100): 0%
- Corn plant response rating (crop injury, 0 = no effect, 100 = complete kill) at 125 g/ha (corn (Zea mays); pre-emergence, Preemergence, 125 g ai/ha, scale 0 to 100 (0 no effect, 100 complete control)): 0%
- plant injury at 500 g/ha (corn (Zea mays); pre-emergence, Preemergence, 500 g ai/ha, scale 0 to 100 (0 no effect, 100 complete control), read-out: Corn plant response rating): 0%
- pest or weed control at 125 g/ha ([8]; post-emergence, Postemergence, scale 0 to 100 (0 no effect, 100 complete control), read-out: Velvetleaf plant response rating): 50%
- pest or weed control at 500 g/ha ([8]; post-emergence, Postemergence, scale 0 to 100, read-out: Plant response rating, Velvetleaf): 80%
- pest or weed control at 125 g/ha ([8]; pre-emergence, Preemergence, scale 0 to 100 (0 no effect, 100 complete control), read-out: Plant response rating, Velvetleaf): 40%
- pest or weed control at 500 g/ha ([8]; pre-emergence, Preemergence, scale 0 to 100 (0 no effect, 100 complete control), read-out: Velvetleaf plant response rating): 70%
- pest or weed control at 125 g/ha ([9]; post-emergence, Postemergence, scale 0 to 100 (0 no effect, 100 complete control), read-out: Surinam Grass plant response rating): 10%
- pest or weed control at 500 g/ha ([9]; post-emergence, Postemergence, scale 0 to 100, read-out: Plant response rating, Surinam Grass): 30%
- pest or weed control at 125 g/ha ([9]; pre-emergence, Preemergence, scale 0 to 100 (0 no effect, 100 complete control), read-out: Plant response rating, Surinam Grass): 0%
- pest or weed control at 500 g/ha ([9]; pre-emergence, Preemergence, scale 0 to 100 (0 no effect, 100 complete control), read-out: Surinam Grass plant response rating): 20%
- pest or weed control at 125 g/ha ([10]; post-emergence, Postemergence, scale 0 to 100 (0 no effect, 100 complete control), read-out: Pigweed plant response rating): 80%
- pest or weed control at 500 g/ha ([10]; post-emergence, Postemergence, scale 0 to 100, read-out: Plant response rating, Pigweed): 90%
- pest or weed control at 125 g/ha ([10]; pre-emergence, Preemergence, scale 0 to 100 (0 no effect, 100 complete control), read-out: Plant response rating, Pigweed): 80%
- pest or weed control at 500 g/ha ([10]; pre-emergence, Preemergence, scale 0 to 100 (0 no effect, 100 complete control), read-out: Pigweed plant response rating): 90%
- pest or weed control at 125 g/ha ([11]; post-emergence, Postemergence, scale 0 to 100 (0 no effect, 100 complete control), read-out: Foxtail, Giant plant response rating): 20%
- pest or weed control at 500 g/ha ([11]; post-emergence, Postemergence, scale 0 to 100, read-out: Plant response rating, Foxtail, Giant): 40%
- pest or weed control at 125 g/ha ([11]; pre-emergence, Preemergence, scale 0 to 100 (0 no effect, 100 complete control), read-out: Plant response rating, Foxtail, Giant): 0%
- pest or weed control at 500 g/ha ([11]; pre-emergence, Preemergence, scale 0 to 100 (0 no effect, 100 complete control), read-out: Foxtail, Giant plant response rating): 0%
- pest or weed control at 125 g/ha ([12]; post-emergence, Postemergence, scale 0 to 100 (0 no effect, 100 complete control), read-out: Morningglory plant response rating): 80%
- pest or weed control at 500 g/ha ([12]; post-emergence, Postemergence, scale 0 to 100, read-out: Plant response rating, Morningglory): 100%
- pest or weed control at 125 g/ha ([12]; pre-emergence, Preemergence, scale 0 to 100 (0 no effect, 100 complete control), read-out: Plant response rating, Morningglory): 50%
- pest or weed control at 500 g/ha ([12]; pre-emergence, Preemergence, scale 0 to 100 (0 no effect, 100 complete control), read-out: Morningglory plant response rating): 60%
- pest or weed control at 125 g/ha ([13]; post-emergence, Postemergence, scale 0 to 100 (0 no effect, 100 complete control), read-out: Lambsquarters plant response rating): 100%
- pest or weed control at 500 g/ha ([13]; post-emergence, Postemergence, scale 0 to 100, read-out: Plant response rating, Lambsquarters): 100%
- pest or weed control at 125 g/ha ([13]; pre-emergence, Preemergence, scale 0 to 100 (0 no effect, 100 complete control), read-out: Plant response rating, Lambsquarters): 70%
- pest or weed control at 500 g/ha ([13]; pre-emergence, Preemergence, scale 0 to 100 (0 no effect, 100 complete control), read-out: Lambsquarters plant response rating): 90%
- pest or weed control at 125 g/ha ([14]; post-emergence, Postemergence, scale 0 to 100 (0 no effect, 100 complete control), read-out: Cocklebur plant response rating): 70%
- pest or weed control at 500 g/ha ([14]; post-emergence, Postemergence, scale 0 to 100, read-out: Plant response rating, Cocklebur): 100%
- pest or weed control at 125 g/ha ([14]; pre-emergence, Preemergence, scale 0 to 100 (0 no effect, 100 complete control), read-out: Plant response rating, Cocklebur): 80%
- pest or weed control at 500 g/ha ([14]; pre-emergence, Preemergence, scale 0 to 100 (0 no effect, 100 complete control), read-out: Cocklebur plant response rating): 80%
